Measured values from US8343983B2, “Substituted pyrazolo-pyrimidine compounds” (ArQule, Inc., priority 2009, dated 2013).
Where two headings read alike, the source gives them in different places.

Tested on: cancer cells
Experiment: MTS assay: inhibition of cell growth (formazan absorbance at 492 nm after 72 hours with test compound)
Type: cell-based
Details: inhibition class
Method in brief: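 DMEM with 1% FBS; cells seeded at 3000/well and grown 18 h at 37 °C, then exposed to compound for 72 h and to MTS/PMS for 4 h. IC50 is the concentration giving a 50% absorbance drop; grades are % inhibition bands.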

[1] = Homo sapiens, DLD-1 cells, read-out: DLD-1, MTS 72 hours at 10 uM
[2] = Homo sapiens, KATO III cells, read-out: KATO III, MTS 72 hours at 10 uM
[3] = Homo sapiens, MDA-MB-231 cells, read-out: MDA-MB-231, MTS 72 hours at 10 uM
[4] = Homo sapiens, NCI-H1299 cells, read-out: NCI-H1299, MTS 72 hours at 10 uM
[5] = Homo sapiens, PC-3 cells, read-out: PC-3, MTS 72 hours at 10 uM
[6] = PACA-2 cells, read-out: PACA-2, MTS 72 hours at 10 uM

Compound	inhibition at 10 µM [1]	inhibition at 10 µM [2]	inhibition at 10 µM [3]	inhibition at 10 µM [4]	inhibition at 10 µM [5]	inhibition at 10 µM [6]
c1ccc(N2CCc3n[nH]c4nc(N5CCCC5)nc2c34)cc1 [Compound 216, 6-phenyl-4-pyrrolidin-1-yl-2,6,7,8-tetrahydro-1,2,3,5,6-pentaazaacenaphthylene]	< 50%	< 50%	< 50%	< 50%	< 50%	50 to 79%
c1ccc(CN2CCc3n[nH]c4nc(NCc5ccc(-c6ccccc6)cc5)nc2c34)cc1 [Compound 79, 6-benzyl-N-(biphenyl-4-ylmethyl)-2,6,7,8-tetrahydro-1,2,3,5,6-pentaazaacenaphthylen-4-amine]	> 79%	50 to 79%	50 to 79%	> 79%	< 50%	< 50%
COc1ccc(CN2CCc3n[nH]c4nc(N5CCN(c6ccncc6)CC5)nc2c34)cc1 [Compound 103, 6-(4-methoxybenzyl)-4-(4-pyridin-4-ylpiperazin-1-yl)-2,6,7,8-tetrahydro-1,2,3,5,6-pentaazaacenaphthylene]	> 79%	> 79%	> 79%	50 to 79%	> 79%	> 79%
Clc1ccc(CCNc2nc3c4c(n[nH]c4n2)CCN3Cc2ccccc2)cc1 [Compound 61, 6-benzyl-N-[2-(4-chlorophenyl)ethyl]-2,6,7,8-tetrahydro-1,2,3,5,6-pentaazaacenaphthylen-4-amine]	50 to 79%	< 50%	< 50%	50 to 79%	< 50%	< 50%
COc1ccc(CN2CCCc3n[nH]c4nc(NC5CCN(C)CC5)nc2c34)cc1 [Compound 246, 6-(4-methoxybenzyl)-N-(1-methylpiperidin-4-yl)-6,7,8,9-tetrahydro-2H-1,2,3,5,6-pentaazabenzo[cd]azulen-4-amine]	< 50%	< 50%	< 50%	< 50%	< 50%	< 50%
O[C@H](CNc1nc2c3c(n[nH]c3n1)CCN2Cc1ccccc1)c1ccccc1 [Compound 72, (1S)-2-[(6-benzyl-2,6,7,8-tetrahydro-1,2,3,5,6-pentaazaacenaphthylen-4-yl)amino]-1-phenylethanol]	< 50%	< 50%	< 50%	< 50%	< 50%	< 50%
CSc1nc2c3c(nn(C)c3n1)CCN2Cc1ccccc1 [Compound 171, 6-benzyl-2-methyl-4-(methylsulfanyl)-2,6,7,8-tetrahydro-1,2,3,5,6-pentaazaacenaphthylene]	> 79%	> 79%	> 79%	50 to 79%	> 79%	> 79%
COc1ccc(CN2CCc3n[nH]c4nc(NCCc5c[nH]c6ccccc56)nc2c34)cc1 [Compound 104, N-[2-(1H-indol-3-yl)ethyl]-6-(4-methoxybenzyl)-2,6,7,8-tetrahydro-1,2,3,5,6-pentaazaacenaphthylen-4-amine]	50 to 79%	50 to 79%	< 50%	50 to 79%	< 50%	< 50%
c1ccc(CN2CCc3n[nH]c4nc(NCC5CCCCCC5)nc2c34)cc1 [Compound 67, 6-benzyl-N-(cycloheptylmethyl)-2,6,7,8-tetrahydro-1,2,3,5,6-pentaazaacenaphthylen-4-amine]	< 50%	< 50%	< 50%	50 to 79%	< 50%	50 to 79%
